PMC6375640, “Genomic insights into neonicotinoid sensitivity in the solitary bee Osmia bicornis” (PLoS Genetics, 2019)
In brackets after ≈: the same amount, converted by molar mass.

How the values were obtained:
O. bicornis cuticle = test: Cuticular penetration of radiolabelled insecticide (pharmacokinetic study); format: in vivo, Osmia bicornis; details: 24 h after application to dorsal thorax
Procedure: Bees were anaesthetised with CO2 for 5–10 seconds to allow application of insecticide. 5,000 ppm of [^14C]imidacloprid or [^14C]thiacloprid was applied to the dorsal thorax of each bee using a Hamilton repeating dispenser. Three replicates of five bees were placed into cages and fed a 50% sucrose solution from vertically hanging 2 ml syringes. Control bees were treated with acetone. Radiolabelled insecticide was rinsed off of each group of bees at set time intervals (0, 2, 4 and 24 hours after application) with acetonitrile water (90:10) three times. The […] bees were then individually combusted at 900°C in an Ox 120c oxidizer (Harvey Instruments Co., USA) followed by liquid scintillation counting of the released ^14CO2 in an alkaline scintillation cocktail (Ultima Gold, PerkinElmer) using a liquid scintillation analyser (Perkin Elmer Tri-Carb 2910 TR). The levels of excreted [^14C]imidacloprid or [^14C]thiacloprid, and/or metabolites, were measured by wiping cages with filter papers dipped in acetone and 0.5 mL aliquots of cuticular rinse or filter papers were added to 3 mL of scintillation fluid cocktail and the radioactivity was quantified by liquid scintillation analysis as above. An unpaired t-test was used to compare the penetration of the two compounds at each time point.

CYP9BU2 [1] = test: Insecticide bioassay on transgenic flies expressing CYP9BU2; format: in vivo, Drosophila melanogaster; details: transgenic line expressing CYP9BU2, Drosophila melanogaster, in vivo; CYP9BU2 strain
Procedure: (§1) CYP9BU1 and CYP9BU2 were codon optimised for D. melanogaster expression and cloned into the pUASTattB plasmid (GenBank: EF362409.1). These constructs were used to create transgenic fly lines, which were then tested in insecticide bioassays against imidacloprid and thiacloprid, as described previously.

[2] = tested on: transgenic Drosophila melanogaster expressing CYP9BU2; test: as above; format: in vivo; details: for RR (resistance ratio): CYP9BU2 strain vs control line; for sensitivity relative to control flies: flies expressing CYP9BU2 vs control flies without transgene
Procedure: as §1

O. bicornis [3] = test: Acute contact toxicity bioassay; format: in vivo, Osmia bicornis; details: for LD50: acute contact, applied to dorsal thorax, thiacloprid limit test 100 μg/bee; for toxicity classification according to U.S. EPA categories: contact exposure
Procedure: O. bicornis cocoons were purchased from Dr Schubert Plant Breeding (Landsberg, Germany) and stored at 4°C in constant darkness. To trigger emergence cocoons were transferred to an incubator (25°C, 55% RH, L16:D8) with emerged bees fed ab libitum with Biogluc (62% sugar concentration consisting of 37.5% fructose, 34.5% glucose, 25% sucrose, 2% maltose, and 1% oligosaccharides) (Biobest), soaked into a piece of cotton wool inside a plastic dish. Males (which are usually first to emerge) were removed from cages and discarded to reduce any unnecessary stress to the females used in insecticide bioassays.
(§2) Acute contact toxicity bioassays on unmated 2 day old female O. bicornis were conducted following the OECD Honey Bee Test guidelines, with modification where necessary. Bees were anaesthetised with CO2 for 5–10 seconds to allow application of insecticide. 1 μL of technical grade imidacloprid was applied to the dorsal thorax of each bee at concentrations of 0.0001, 0.001, 0.01, 0.1, 1, and 10 μg/μL. No mortality was observed using the same concentrations of thiacloprid so a limit test of 100 μg/bee was performed. Control bees were treated with 1 μL 100% acetone. Three replicates of 10 bees were tested for each concentration. Tested individuals were placed back into cages in the incubator (25°C, 55% RH, L16:D8), with five bees per cage. In piperonyl butoxide (PBO) synergist bioassays, bees were first treated with the maximum sublethal dose (in this case 100 μg/μL) of PBO followed by insecticide one hour later. Synergist bioassays included an additional control group treated only with PBO. Mortality was assessed 48 and 72 hours after application. Probit analysis was used to calculate the LD50 values, slope, and synergism ratio (where relevant) for each insecticide (Genstat v.18 (VSNI 2015)).

in vivo = details: in vivo; Control strain
Procedure: as §1

[4] = tested on: Drosophila melanogaster control line; test: in vivo; details: for RR (resistance ratio): Control strain (reference); for Slope (+/- SE): log-dose probit mortality, Control strain
Procedure: as §1

CYP9BU2 [5] = test: Metabolism assay with recombinant P450/CPR microsomes, UPLC-MS/MS; details: for metabolism to 5-hydroxy form: 25 μM insecticide, 5 pmol P450, NADPH, 1 hour, 30°C
Source text: (§3) O. bicornis P450 genes and house fly NADPH-dependent cytochrome P450 reductase (CPR) (GenBank accession no. Q07994) genes were codon optimised for expression in lepidopteran cell lines, synthesized (Geneart, CA, USA) and inserted into the pDEST8 expression vector (Invitrogen). The PFastbac1 vector with no inserted DNA was used to produce a control virus. The recombinant baculovirus DNA was constructed and transfected into Trichoplusia ni (High five cells, Thermo Fisher) using the Bac-to-Bac baculovirus expression system (Invitrogen) according to the manufacturer’s instructions. The titre of the recombinant virus was determined following protocols of the supplier. High Five cells grown to a density of 2 x 10^6 cells ml^-1 were co-infected with recombinant baculoviruses containing each bee P450 and CPR with a range of MOI (multiplicity of infection) ratios to identify the optimal conditions. Control cells were co-infected with the baculovirus containing vector with no insert (ctrl-virus) and the recombinant baculovirus expressing CPR using the same MOI ratios. Ferric citrate and δ-aminolevulinic acid hydrochloride were added to a final concentration of 0.1 mM at the time of infection and 24 h after infection to compensate the low levels of endogenous heme in the insect cells. After 48 h, cells were harvested, washed with PBS, and microsomes of the membrane fraction prepared according to standard procedures and stored at −80°C [41]. Briefly, pellets were homogenised for 30 s in 0.1 M Na/K-phosphate buffer, pH 7.4 containing 1 mM EDTA and DTT and 200 mM sucrose using a Fastprep (MP Biomedicals), filtered through miracloth and centrifuged for 10 min at 680g at 4°C. The supernatant was then centrifuged for 1 h at 100,000g at 4°C, with the pellet subsequently resuspended in 0.1M Na/K-phosphate buffer pH 7.6 containing 1 mM EDTA and DTT and 10% glycerol using a Dounce tissue grinder. P450 expression and functionality was estimated by measuring CO-difference spectra in reduced samples using a Specord 200 Plus Spectrophotometer (Analytik Jena) and scanning from 500 nm to 400 nm. The protein content of samples was determined using Bradford reagent (Sigma) and bovine serum albumin (BSA) as a reference.
(§4) Metabolism of thiacloprid and imidacloprid was assessed by incubating recombinant P450/CPR (5 pmol/well) or control virus/CPR (5 pmol/well) with each insecticide (25 μM) in the presence of an NADPH regeneration system at 30±1°C, shaking, for 1 hour. […] The peak integrals were calibrated externally against a standard calibration curve.

CYP9BU1 [6] = test: as above; details: for metabolism to 5-hydroxy form: 25 μM insecticide, 5 pmol P450, NADPH, 1 hour, 30°C
Source text: as §3, §4

[7] = tested on: transgenic Drosophila melanogaster expressing CYP9BU1; test: Insecticide bioassay on transgenic flies expressing CYP9BU1; format: in vivo; details: for RR (resistance ratio): CYP9BU1 strain vs control line; for sensitivity relative to control flies (less sensitive): flies expressing CYP9BU1 vs control flies without transgene
Procedure: as §1

CYP9BU1 [8] = test: as above; format: in vivo, Drosophila melanogaster; details: transgenic line expressing CYP9BU1, Drosophila melanogaster, in vivo; CYP9BU1 strain
Procedure: as §1

O. bicornis nAChRs = test: Radioligand competition binding, [3H]imidacloprid displacement from head membrane preparations; set-up: species or system Osmia bicornis; details: 576 pM radioligand, 60 min room temperature
Procedure: [^3H]imidacloprid (specific activity 1.406 GBq μmol^−1) displacement studies were conducted using membrane preparations isolated from frozen (−80°C) O. bicornis heads, following previously published protocols. Briefly, bee heads weighing 10 g were homogenized in 200 ml ice-cold 0.1 M potassium phosphate buffer, pH 7.4 containing 95 mM sucrose using a motor-driven Ultra Turrax blender. […] Assays were performed in a 96-well microtitre plate with bonded GF/C filter membrane (Packard UniFilter-96, GF/C) and consisted of 200 μl of homogenate (0.48 mg protein), 25 μl of [^3H]imidacloprid (576 pM) and 25 μl of competing ligand. Ligand concentrations used ranged from 0.001 to 10 000 nM and were tested in triplicate per competition assay. The assay was started by the addition of homogenate and incubated for 60 min at room temperature. Bound [^3H]imidacloprid was quantified by filtration into a second 96-well filter plate (conditioned with ice-cold 100 mM potassium phosphate buffer, pH 7.4 (including BSA 5 g litre−1)) using a commercial cell harvester (Brandel). […] Each well was then loaded with 25 μl of scintillation cocktail (Microszint-O-Filtercount, Packard) and the plate counted in a Topcount scintillation counter (Packard). Non-specific binding was determined using a final concentration of 10 μM unlabelled imidacloprid. […]

O. bicornis [9] = test: PBO (piperonyl butoxide) synergist bioassay; format: in vivo, Osmia bicornis; details: with vs without PBO pre-treatment one hour before insecticide
Procedure: as §2

O. bicornis [10] = test: Sublethal dose (LD10) used for oral exposure; format: in vivo, Osmia bicornis; details: used as sublethal dose, supplied orally in 50% sucrose
Procedure: To examine if P450 expression in O. bicornis is induced by exposure to sublethal concentrations of neonicotinoids, imidacloprid and thiacloprid were dissolved in acetone to the highest concentration possible, before being diluted to the LD10 of imidacloprid (0.0001 μg/bee) and thiacloprid (0.01 μg/bee) with 50% sucrose (w/v) in order to limit the amount of acetone consumed by bees. Prior to commencing oral bioassays bees underwent a 24 hour ‘training’ period in the Nicot cages to enable them to learn to feed from the syringes. This was followed by a 16h starvation period to encourage subsequent feeding. 15μL of the insecticide/sucrose solution was supplied orally to the bees in disposable plastic syringes. Control bees were fed 15μL of a sucrose solution containing the same volume of acetone used to make up the insecticide/sucrose solutions. When all of the solution had been consumed the bees were fed ab libitum with a 50% sucrose solution for 24 h. After this period for each condition four replicates comprising 5 bees per replicate were snap frozen in liquid nitrogen and RNA extracted from each replicate as above. RNA was used as a template for the generation of barcoded libraries (TrueSeq RNA library preparation, Illumina) which were sequenced across two lanes of an Illumina HiSeq2500 flowcell (100 bp paired end reads). Sequencing was carried out by Earlham Institute, Norwich, UK. […]

[11] = tested on: adult female O. bicornis gene expression; test: RNAseq of bees after sublethal oral neonicotinoid exposure (P450 induction); format: in vivo, Osmia bicornis; details: for induction of P450 expression: 24 h after exposure to LD10; for number of genes significantly upregulated: 24 h after exposure to LD10, corrected p <0.05 vs solvent control
Procedure: To examine if P450 expression in O. bicornis is induced by exposure to sublethal concentrations of neonicotinoids, imidacloprid and thiacloprid were dissolved in acetone to the highest concentration possible, before being diluted to the LD10 of imidacloprid (0.0001 μg/bee) and thiacloprid (0.01 μg/bee) with 50% sucrose (w/v) in order to limit the amount of acetone consumed by bees. Prior to commencing oral bioassays bees underwent a 24 hour ‘training’ period in the Nicot cages to enable them to learn to feed from the syringes. This was followed by a 16h starvation period to encourage subsequent feeding. 15μL of the insecticide/sucrose solution was supplied orally to the bees in disposable plastic syringes. Control bees were fed 15μL of a sucrose solution containing the same volume of acetone used to make up the insecticide/sucrose solutions. When all of the solution had been consumed the bees were fed ab libitum with a 50% sucrose solution for 24 h. After this period for each condition four replicates comprising 5 bees per replicate were snap frozen in liquid nitrogen and RNA extracted from each replicate as above. RNA was used as a template for the generation of barcoded libraries (TrueSeq RNA library preparation, Illumina) which were sequenced across two lanes of an Illumina HiSeq2500 flowcell (100 bp paired end reads). Sequencing was carried out by Earlham Institute, Norwich, UK. To identify genes differentially expressed between control and the treatment the Tuxedo workflow was used to map with TopHat against the annotated reference genome, to estimate gene expression with Cufflinks and test for differential expression with Cuffdiff.

[12] = production of hydroxy metabolite per pmol P450

| Compound | final uptake through the cuticle (O. bicornis cuticle) | LC50 (CYP9BU2 [1]) | RR (resistance ratio) [2] | sensitivity relative to control flies [2] | LD50 (O. bicornis [3]; adult female bees) | toxicity classification according to U.S. EPA categories (O. bicornis [3]) | LC50 (in vivo) | RR (resistance ratio) [4] | Slope (+/- SE) [4] | metabolism to 5-hydroxy form (CYP9BU2 [5]) | metabolism to 5-hydroxy form (CYP9BU1 [6]) | RR (resistance ratio) [7] | sensitivity relative to control flies (less sensitive) [7] | LC50 (CYP9BU1 [8]) | IC50 (O. bicornis nAChRs) | change in sensitivity after PBO pre-treatment (O. bicornis [9]) | LD10 (O. bicornis [10]) | induction of P450 expression [11] | number of genes significantly upregulated [11] | further results |
| --- | --- | --- | --- | --- | --- | --- | --- | --- | --- | --- | --- | --- | --- | --- | --- | --- | --- | --- | --- | --- |
| O=[N+]([O-])NC1=NCCN1Cc1ccc(Cl)nc1 [imidacloprid] | 27% | 135 µg/mL (≈ 530 µM) | 0.8 | no significant differences in sensitivity | 0.046 μg/bee | highly toxic | 165 µg/mL (≈ 645 µM) | 1 | 1.7 +/- 0.12 | metabolise these compounds to their hydroxylated forms | metabolise these compounds to their hydroxylated forms | 0.5 | no significant differences in sensitivity | 85.9 µg/mL (≈ 336 µM) | 8.3 nM | No significant difference | 0.0001 μg/bee | no P450 showed a significant increase in expression | 27 genes | Slope (+/- SE) ([2]; log-dose probit mortality, CYP9BU2 strain): 1.5 +/- 0.14; fold more sensitive to imidacloprid than thiacloprid (O. bicornis [3]; adult female bees, ratio of contact LD50): > 2,000 fold; Slope (+/- SE) ([7]; log-dose probit mortality, CYP9BU1 strain): 1.3 +/- 0.13 |
| N#C/N=C1\SCCN1Cc1ccc(Cl)nc1 [thiacloprid] | 28% | 17.5 µg/mL (≈ 69.2 µM) | 1.1 | no significant resistance | > 100 μg/bee | practically non-toxic | 17 µg/mL (≈ 67.4 µM) | 1 | 1.2 +/- 0.14 | metabolise these compounds to their hydroxylated forms | metabolise these compounds to their hydroxylated forms | 3.8 | ~ 4 times | 65.7 µg/mL (≈ 260 µM) | 2.4 nM | > 7 fold | 0.01 μg/bee | no P450 showed a significant increase in expression | 16 genes | mortality (O. bicornis [3]; 1 μL at 0.0001-10 μg/μL, contact): No mortality; efficiency of metabolism relative to imidacloprid (CYP9BU2 [5]; [12]): significantly greater efficiency than imidacloprid; efficiency of metabolism relative to imidacloprid (CYP9BU1 [6]; [12]): significantly greater efficiency than imidacloprid |
